According to patent US6194416A, “Heterocyclic compounds and their use” (Eli Lilly and Company, priority 1997, dated 2001):
Read-outs that look alike come from different tables or passages of the source.

How the values were obtained:
[1] = biological target: muscarinic acetylcholine receptors; test: Inhibition of specific binding of 3H-Oxotremorine-M (3H-Oxo) to rat cortex membranes; design: species or system male Wistar rats; details: 1.0 nM 3H-Oxotremorine, 30 min, 25° C., pH 7.4
From the text: The pharmacological properties of the compounds of the invention can be illustrated by determining their capability to inhibit the specific binding of ^3 H-Oxotremorine-M (^3 H-Oxo). Birdsdall N. J. M., Hulme E. C., and Burgen A. S. V. (1980). "The Character of Muscarinic Receptors in Different Regions of the Rat Brain". Proc. Roy. Soc. London (Series B) 207,1.
^3 H-Oxo labels muscarinic receptor in the CNS (with a preference for agonist domains of the receptors). Three different sites are labeled by ^3 H-Oxo. […] Using the present experimental conditions only the high and medium affinity sites are determined.
The inhibitory effects of compounds on ^3 H-oxo binding reflects the affinity for muscarinic acetylcholine receptors.
(§1) All preparations are performed at 0-4° C. unless otherwise indicated. Fresh cortex (0.1-1 g) from male Wistar rats (150-250 g) is homogenized for 5-10 s in 10 mL 20 nM Hepes pH: 7.4, with an Ultra-Turrax homogenizer. The homogenizer is rinsed with 10 mL of buffer and the combined suspension centrifuged for 15 min. at 40,000×g. The pellet is washed three times with buffer. In each step the pellet is homogenized as before in 2×10 mL of buffer and centrifuged for 10 min. at 40,000×g.
The final pellet is homogenized in 20 mM Hepes pH: 7.4 (100 mL per g of original tissue) and used for binding assay. Aliquots of 0.5 mL is added 25 μL of test solution and 25 μL of ^3 H-Oxotremorine (1.0 nM, final concentration) mixed and incubated for 30 min. at 25° C. Non-specific binding is determined in triplicate using arecoline (1 μg/mL, final concentration) as the test substance. After incubation samples are added 5 mL of ice-cold buffer and poured directly onto Whatman GF/C glass fiber filters under suction and immediately washed 2 times with 5 mL of ice-cold buffer. The amount of radioactivity on the filters are determined by conventional liquid scintillation counting. Specific binding is total binding minus non specific binding.
Test substances are dissolved in 10 mL water (if necessary heated on a steam-bath for less than 5 min.) at a concentration of 2.2 mg/mL. 25-75% inhibition of specific binding must be obtained before calculation of IC50. The test value will be given as IC50 (the concentration (nM) of the test substance which inhibits the specific binding of ^3 H-oxo by 50%). IC50 =(applied test substance concentration) x([…])nM where Co is specific binding in control assays and Cx is the specific binding in the test assay. (The calculations assume normal mass-action kinetics).

[2] = biological target: T1, muscarinic receptors (M1-site, pirenzepine sensitive site) (Rattus norvegicus, UniProt P08482); test: Inhibition of 3HPRZ (pirenzepine, [N-methyl-3H]) binding to rat cerebral cortex membranes; design: species or system male Wistar rats
T1 construct: from tissue; host or cells: cerebral cortex membranes of male Wistar rats
T1 sequence (P08482 1-460): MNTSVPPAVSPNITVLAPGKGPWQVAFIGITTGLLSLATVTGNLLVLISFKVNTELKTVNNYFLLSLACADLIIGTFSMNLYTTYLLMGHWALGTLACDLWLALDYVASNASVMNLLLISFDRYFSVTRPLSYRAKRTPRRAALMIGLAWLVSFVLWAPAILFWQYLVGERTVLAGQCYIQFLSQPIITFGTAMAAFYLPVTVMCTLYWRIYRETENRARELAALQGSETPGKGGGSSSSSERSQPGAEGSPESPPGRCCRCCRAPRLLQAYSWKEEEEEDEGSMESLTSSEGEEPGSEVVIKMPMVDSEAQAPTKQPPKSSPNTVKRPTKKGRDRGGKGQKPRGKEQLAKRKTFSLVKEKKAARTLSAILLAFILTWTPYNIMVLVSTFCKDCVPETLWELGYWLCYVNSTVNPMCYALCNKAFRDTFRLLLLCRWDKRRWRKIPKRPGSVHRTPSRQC
Procedure: Furthermore the pharmacological properties of the compounds of the invention can also be illustrated by determining their capability to inhibit ^3 HPRZ (pirenzepine, [N-methyl-^3 H]) binding to rat cerebral cortex membranes.
Pirenzepine binds selectively to subtype of muscarinic receptors. Historically the type is named the M1 -site, whereas pirenzepine sensitive site would be more appropriate.
as §1, with “cortex ([…])” for “cortex (0.1-1 g)”, “rats (150-200” for “rats (150-250”, “20 mM” for “20 nM”, “with 2×10” for “with 10”, “in 3×10” for “in 2×10”
The final pellet is homogenized in 20 MM Hepes pH: 7.4 (100 mL per g of original tissue) and used for binding assay. Aliquots of 0.5 mL is added 20 μL of test solution and 25 μL of ^3 HPRZ (1.0 nM, final conc.), mixed and incubated for 60 min. at 20° C. Non-specific binding is determined in triplicate using atropine (1.0 μg/mL, final conc.) as the test substance. After incubation samples are added 5 mL of ice-cold buffer and poured directly onto Whatman GF/C glass fiber filters under suction and immediately washed 2 times with 5 mL of ice-cold buffer.
The amount of radioactivity on the filters are determined by conventional liquid scintillation counting. Specific binding is total binding minus non-specific binding.
Test substances are dissolved in 10 mL water, at a concentration of 0.22 mg/mL. 25-75% inhibition of specific binding must be obtained before calculation of IC50.
The test value will be given as IC50 (the concentration (nM) of the test substance which inhibits the specific binding of ^3 HPRZ by 50%). IC50 =(applied test substance concentration) x(Cx /Co -Cx)nM where Co is specific binding in control assays and Cx is the specific binding in the test assay. (The calculations assume normal mass-action kinetics).

nicotinic receptors = test: Nicotinic channel receptor binding: [3H]-cystine binding to crude synaptic membranes from whole rat brain; details: 1.25 nM [3H-cystine], about 60 min, about 4° C.
Procedure: Nicotinic Channel Receptor Binding Protocol:
The activity of the compounds claimed herein at the nicotinic receptor can be accomplished by the following assay.
Binding of […] to nicotinic receptors was accomplished using crude synaptic membrane preparations from whole rat brain (Pabreza et al. Molecular Pharmacol., 1990, 39:9). Washed membranes were stored at about -80° C. prior to use. Frozen aliquots were slowly thawed and resuspended in 20 volumes of buffer (containing: […] NaCl, 5 mM KCl, 2 mM MgCl2, 2 mM Tris-Cl, ph 7.4 @4° C.). After centrifuging at 20,000×g for 15 minutes, the pellets were resuspended in about 30 volumes of buffer. Homogenate (containing about 125-150 ug protein) was added to tubes containing concentrations of test compound and [^3 H-cystine] (1.25 nM) in a final volume of 500 uL. Samples were incubated for about 60 minutes at about 4° C., then rapidly filtered through GF/B filters presoaked in 0.5% polyethylimine using 3×4 mL of ice cold buffer. The filters were counted.

[3] = rat cerebral cortex, 1.0 nM 3HPRZ, 60 min, 20° C., pH 7.4, read-out: 3HPRZ IC50

Compound	IC50 [1]	IC50 [2, 3]	Ki (nicotinic receptors)	IC50 [2]
COCCSc1nccnc1O[C@@H]1CN2CCC[C@H]1C2 (relative stereo) [Compound 41, (±)-endo-2-(2-Methoxyethylthio)-3-(1-azabicyclo[3.2. 1]octyl-6-oxy)pyrazine]	3.2 nM	1.6 nM		
C(=Cc1ccccc1)CSc1nccnc1O[C@@H]1CN2CCC[C@H]1C2 (relative stereo) [Compound 42, (±)-endo-2-(3-Phenyl-2-propenylthio)-3-(1-azabicyclo[3.2. 1]octyl-6-oxy)pyrazine]	9.1 nM	4.8 nM		
C[N+](C)(C)CCOc1cnccn1 [Compound 27, 2-(2-Trimethylaminoethoxy)pyrazine iodide]			110 nM	
CCCSc1nccnc1O[C@@H]1CN2CCC[C@H]1C2 (relative stereo) [Compound 29, (±)-endo-2-Propylthio-3-(1-azabicyclo[3.2.1]octyl-6-oxy)pyrazine]	1.7 nM	0.68 nM		
CCCCSc1nccnc1OCCN(C)C [Compound 17]			21400 nM	
FC(F)(F)Oc1ccc(CSc2nccnc2O[C@@H]2CN3CCC[C@H]2C3)cc1 (relative stereo) [Compound 38, (±)-endo-2-(4-Trifluoromethoxybenzylthio)-3-(1-azabicyclo[3.2. 1]octyl-6-oxy)pyrazine]	6.2 nM	3.3 nM		
CCSc1nccnc1O[C@@H]1CN2CCC[C@H]1C2 (relative stereo) [Compound 32, (±)-endo-2-Ethylthio-3-(1-azabicyclo[3.2.1]octyl-6-oxy)pyrazine]	3.9 nM	4 nM		
CC(C)=CCCSc1nccnc1O[C@@H]1CN2CCC[C@H]1C2 (relative stereo) [Compound 43, (±)-endo-2-(4-Methyl-3-pentenylthio)-3-(1-azabicyclo[3.2. 1]octyl-6-oxy)pyrazine]	8.1 nM	2.2 nM		
CCCCSc1nccnc1OCC[N+](C)(C)C [Compound 18, 3-(1-Butylthio)-2-(2-(trimethylamino)ethoxy)pyrazine iodide]			580 nM	
CC(C)CCSc1nccnc1O[C@@H]1CN2CCC[C@H]1C2 (relative stereo) [Compound 37, (±)-endo-2-(3-Methylbutylthio)-3-(1-azabicyclo[3.2. 1]octyl-6-oxy)pyrazine]	1.3 nM	0.76 nM		
C/C=C/CSc1nccnc1O[C@@H]1CN2CCC[C@H]1C2 (relative stereo) [Compound 34, (±)-endo-2-(trans-2-Butenylthio)-3-(1-azabicyclo[3.2. 1]octyl-6-oxy)pyrazine]	2 nM	0.66 nM		
CCCCCSc1nccnc1O[C@@H]1CN2CCC[C@H]1C2 (relative stereo) [Compound 30, (±)-endo-2-Pentylthio-3-(1-azabicyclo[3.2.1]octyl-6-oxy)pyrazine]	4.4 nM	0.82 nM		
Clc1nccnc1O[C@H]1CN2CCC[C@@H]1C2 (relative stereo) [Compound 19, 3-Chloro-2-[endo-(+,-)-6-(1-azabicyclo[3.2.1]octyloxy)]-pyrazine]			2780 nM	
FC(F)(F)CCCSc1nccnc1O[C@@H]1CN2CCC[C@H]1C2 (relative stereo) [Compound 35, (±)-endo-2-(4,4,4-Trifluorobutylthio)-3-(1-azabicyclo[3.2. 1]octyl-6-oxy)pyrazine]	3.2 nM	0.54 nM		
CCCCOc1nccnc1O[C@@H]1CN2CCC[C@H]1C2 (relative stereo) [Compound 23, 3-(1-butyloxy)-2-[endo-(+,-)-6-(1-azabicyclo[3.2.1]octyloxy)]-pyrazine]	4.9 nM			2.7 nM
FC(F)(F)CSc1nccnc1O[C@@H]1CN2CCC[C@H]1C2 (relative stereo) [Compound 33, (±)-endo-2-(2,2,2,-Trifluoroethylthio)-3-(1-azabicyclo[3.2. 1]octyl-6-oxy)pyrazine]	1.5 nM	0.7 nM		
C=CCSc1nccnc1O[C@@H]1CN2CCC[C@H]1C2 (relative stereo) [Compound 36, (±)-endo-2-(2-propenylthio)-3-(1-azabicyclo[3.2.1]octyl-6-oxy)pyrazine]	0.34 nM	5.8 nM		
FC(F)(F)CSc1cncc(O[C@@H]2CN3CCC[C@H]2C3)n1 (relative stereo) [Compound 40, (±)-endo-2-(2.2.2-Trifluoroethylthio)-6-(1-azabicyclo[3.2. 1]octyl-6-oxy)pyrazine]	60 nM	17 nM		
CCCCSc1nccnc1OC1CN2CCC1CC2 (racemic) [Compound 6, (+/-)-3-Butylthio-2-(1-azabicyclo[2.2.2]octyl-3-oxy)pyrazine]			5490 nM	
CCCSc1cncc(O[C@@H]2CN3CCC[C@H]2C3)n1 (relative stereo) [Compound 39, (±)-endo-2-Propylthio-6-(1-azabicyclo[3.2.1]octyl-6-oxy)pyrazine]	10 nM	80 nM		
CC(C)CSc1nccnc1O[C@@H]1CN2CCC[C@H]1C2 (relative stereo) [Compound 31, (±)-endo-2-(2-Methylpropylthio)-3-(1-azabicyclo[3.2. 1]octyl-6-oxy)pyrazine]	3.4 nM	1.7 nM		
CCCCSc1nccnc1O[C@@H]1CN2CCC[C@H]1C2 (relative stereo) [Compound 24, 3-(1-butylthio)-2-[endo-(+,-)-6-(1-azabicyclo[3.2.1]octyloxy)]-pyrazine]	2.2 nM	0.54 nM		
